For assay [1], the target named is K-Ras^G12C : hSOS1 interaction (Homo sapiens, UniProt Q07889). Description: Biochemical assay 1: K-Ras^G12C interaction assay with hSOS1 (HTRF). It is filed as binding. To be noted: read-out: Assay 1 (KRAS-SOS Interaction) activity expressed as IC50.
For assay [2], the target named is human SOS1 (nucleotide exchange of K-Ras^G12C) (Homo sapiens, UniProt Q07889). Nature of the assay: Biochemical assay 2: K-Ras^G12C activation assay by hSOS1 at high GTP concentration (HTRF). Conditions: high GTP; read-out: Assay 2 (KRAS-Activation by SOS high GTP) activity expressed as IC50.

pIC50: −log10 of the molar value. Structures can show the parent of a compound that is named as a salt.

In the case of `COc1cc2nc(C)nc(NC(C)c3ccc(-c4ccc(F)cc4CNC(=O)CNCC(F)(F)F)s3)c2cc1OC` (stereo not drawn) [Example 295, N-[2-(5-{1-[(6,7-dimethoxy-2-methylquinazolin-4-yl)amino]ethyl}thiophen-2-yl)-5-fluorobenzyl]-N^2-(2,2,2-trifluoroethyl)glycinamide], the pIC50 (in general, the negative decadic logarithm of the IC50, by convention in mol/L) in assay [1] is 6.01; in assay [2], 5.83.
The corresponding values for `COc1cc2nc(C)nc(N[C@H](C)c3cccc(CN)c3)c2cc1OC` [Example 260, N-{(1R)-1-[3-(aminomethyl)phenyl]ethyl}-6,7-dimethoxy-2-methylquinazolin-4-amine] are 5.31 and 5.69.
For `COc1cc2nc(C)nc(NC(C)c3ccc(-c4ccccc4OCCN4CCCC4)s3)c2cc1OC` (stereo not drawn) [Example 325, 6,7-di methoxy-2-methyl-N-[1-(5-{2-[2-(pyrrolidin-1-yl)ethoxy]phenyl}thiophen-2-yl)ethyl]quinazolin-4-amine], the values for the negative logarithm of the IC50 (pIC50) in assay [1] and in assay [2] were 6.64 and 6.35, respectively.
The corresponding values for `COc1cc2nc(C)nc(NC(C)c3ccc(-c4ccccc4CN4CCNCC4)s3)c2cc1OC` (stereo not drawn) [Example 305, 6,7-dimethoxy-2-methyl-N-[1-{5-[2-(piperazin-1-ylmethyl)phenyl]thiophen-2-yl}ethyl]quinazolin-4-amine hydrochloride] are 7.21 and 7.26.
On to `COc1cc2nc(C)nc(NC(C)c3ccc(-c4ccccc4CNCC(=O)N4CCOCC4)s3)c2cc1OC` (stereo not drawn) [Example 285, 2-{[2-(5-{1-[(6,7-dimethoxy-2-methylquinazolin-4-yl)amino]ethyl}thiophen-2-yl)benzyl]amino}-1-(morpholin-4-yl)ethanone], for which the pIC50 in assay [1] is 6.69; in assay [2], 6.80.
For `CNCc1ccccc1-c1cccc([C@@H](C)Nc2nc(C)nc3cc(OC)c(OC)cc23)c1` [Example 268, 6,7-dimethoxy-2-methyl-N-[(1R)-1-{2′-[(methylamino)methyl]biphenyl-3-yl}ethyl]quinazolin-4-amine], the figures for the pIC50 in assay [1] and in assay [2] were 6.78 and 6.82, respectively.
`COc1cc2nc(C)nc(NC(C)c3ccc(-c4ccc(F)cc4CNC(=O)c4cnc[nH]4)s3)c2cc1OC` (stereo not drawn) [Example 294, N-[2-(5-{1-[(6,7-dimethoxy-2-methylquinazolin-4-yl)amino]ethyl}thiophen-2-yl)-5-fluorobenzyl]-1H-imidazole-5-carboxamide]: the pIC50 in assay [1] was 5.51; in assay [2], 5.41.
As for `COc1cc2nc(C)nc(NC(C)c3cccc4scnc34)c2cc1OC` (stereo not drawn) [Example 14, N-[1-(1,3-benzothiazol-4-yl)ethyl]-6,7-dimethoxy-2-methylquinazolin-4-amine], the negative logarithm of the IC50 (pIC50) in assay [1] is 6.18; in assay [2], 6.22.
The corresponding values for `COc1cc2nc(C)nc(NC(C)c3ccc(-c4ccc(F)cc4CNC(=O)CNc4ccccc4)s3)c2cc1OC` (stereo not drawn) [Example 299, N-[2-(5-{1-[(6,7-dimethoxy-2-methylquinazolin-4-yl)amino]ethyl}thiophen-2-yl)-5-fluorobenzyl]-N^2-phenylglycinamide] are 6.02 and 5.91.
The corresponding values for `COc1cc2nc(C)nc(NC(C)c3cccc4sc(C)cc34)c2cc1OC` (stereo not drawn) [Example 330, 6,7-dimethoxy-2-methyl-N-[1-(2-methyl-1-benzothiophen-4-yl)ethyl]quinazolin-4-amine] are 6.64 and 6.44.
`COc1cc2nc(C)nc(N[C@H](C)c3cccc(-c4ccccc4CN)c3)c2cc1OC` [Example 258, N-{(1R)-1-[2′-(aminomethyl)biphenyl-3-yl]ethyl}-6,7-dimethoxy-2-methylquinazolin-4-amine]: the values for the negative logarithm of the IC50 (pIC50) in assay [1] and in assay [2] were 6.69 and 6.72, respectively.
The corresponding values for `COc1cc2nc(C)nc(NC(C)c3ccc(-c4ccc(F)cc4CNC(C)=O)s3)c2cc1OC` (stereo not drawn) [Example 307, N-[2-(5-{1-[(6,7-dimethoxy-2-methylquinazolin-4-yl)amino]ethyl}thiophen-2-yl)-5-fluorobenzyl]acetamide] are 6.23 and 6.23.
The corresponding values for `COc1cc2nc(C)nc(NC(C)c3ccc(-c4ccc(CN)cc4)s3)c2cc1OC` (stereo not drawn) [Example 266, N-[1-{5-[4-(aminomethyl)phenyl]thiophen-2-yl}ethyl]-6,7-dimethoxy-2-methylquinazolin-4-amine] are 5.44 and 5.77.
As for `COc1cc2nc(C)nc(NC(C)c3ccc(-c4cccc(CN)c4)s3)c2cc1OC` (stereo not drawn) [Example 265, N-[1-{5-[3-(aminomethyl)phenyl]thiophen-2-yl}ethyl]-6,7-dimethoxy-2-methylquinazolin-4-amine], the pIC50 in assay [1] is 5.56; in assay [2], 5.83.
The corresponding values for `COc1cc2nc(C)nc(NC(C)c3ccc(-c4ccccc4CNCC(=O)N4CCc5ccccc5C4)s3)c2cc1OC` (stereo not drawn) [Example 303, 1-(3,4-dihydroisoquinolin-2(1H)-yl)-2-{[2-(5-{1-[(6,7-dimethoxy-2-methylquinazolin-4-yl)amino]ethyl}thiophen-2-yl)benzyl]amino}ethanone] are 6.14 and 6.08.
The corresponding values for `COc1cc2nc(C)nc(N[C@H](C)c3cccc(-c4cn[nH]c4C)c3)c2cc1OC` [Example 335, 6,7-dimethoxy-2-methyl-N-{(1R)-1-[3-(5-methyl-1H-pyrazol-4-yl)phenyl]ethyl}quinazolin-4-amine] are 6.84 and 6.43.
The corresponding values for `COc1cc2nc(C)nc(N[C@H](C)c3cccc(-c4ccn[nH]4)c3)c2cc1OC` [Example 337, 6,7-dimethoxy-2-methyl-N-{(1R)-1-[3-(1H-pyrazol-5-yl)phenyl]ethyl}quinazolin-4-amine] are 6.46 and 6.09.
As for `CNCc1ccccc1-c1cc(C(C)Nc2nc(C)nc3cc(OC)c(OC)cc23)cs1` (stereo not drawn) [Example 263, 6,7-dimethoxy-2-methyl-N-[1-(5-{2-[(methylamino)methyl]phenyl}thiophen-3-yl)ethyl]quinazolin-4-amine], the pIC50 in assay [1] and in assay [2] was 6.63 throughout.
Take `COc1cc2nc(C)nc(NC(C)c3csc(-c4ccccc4CN)c3)c2cc1OC` (stereo not drawn) [Example 259, N-[1-{5-[2-(aminomethyl)phenyl]thiophen-3-yl}ethyl]-6,7-dimethoxy-2-methylquinazolin-4-amine]: the pIC50 is 6.40 in assay [1] and 6.36 in assay [2].
Consider `COc1cc2nc(C)nc(N[C@H](C)c3cccc(-c4ccc(F)cc4CN)c3)c2cc1OC` [Example 274, N-{(1R)-1-[2′-(aminomethyl)-4′-fluorobiphenyl-3-yl]ethyl}-6,7-dimethoxy-2-methylquinazolin-4-amine], for which the negative-log IC50 (pIC50) in assay [1] is 6.89; in assay [2] it was 6.85.
Turning to `COc1cc2nc(C)nc(N[C@H](C)c3cccc(-c4ccnn4C)c3)c2cc1OC` [Example 339, 6,7-dimethoxy-2-methyl-N-{(1R)-1-[3-(1-methyl-1H-pyrazol-5-yl)phenyl]ethyl}quinazolin-4-amine], the values for the negative logarithm of the IC50 (pIC50) in assay [1] and in assay [2] were 6.09 and 5.86, respectively.
The corresponding values for `COc1cc2nc(C)nc(NC(C)c3nccc4sccc34)c2cc1OC` (stereo not drawn) [Example 333, 6,7-dimethoxy-2-methyl-N-[1-(thieno[3,2-c]pyridin-4-yl)ethyl]quinazolin-4-amine] are 4.89 and 5.21.
The corresponding values for `COc1cc2nc(C)nc(N[C@H](C)c3cccc(-n4ccnc4)c3)c2cc1OC` [Example 340, N-{(1R)-1-[3-(1H-imidazol-1-yl)phenyl]ethyl}-6,7-dimethoxy-2-methylquinazolin-4-amine] are 6.46 and 6.04.
Take `COc1cc2nc(C)nc(N[C@H](C)c3cccc(-c4cnc5n4CCC5)c3)c2cc1OC` [Example 261, N-{(1R)-1-[3-(6,7-dihydro-5H-pyrrolo[1,2-a]imidazol-3-yl)phenyl]ethyl}-6,7-dimethoxy-2-methylquinazolin-4-amine]: the negative logarithm of the IC50 (pIC50) in assay [1] is 6.08; in assay [2] it was 6.06.
For `COc1cc2nc(C)nc(NC(C)c3ccc(-c4cscc4C#N)s3)c2cc1OC` (stereo not drawn) [Example 287, 5-{1-[(6,7-dimethoxy-2-methylquinazolin-4-yl)amino]ethyl}-2,3′-bithiophene-4′-carbonitrile], the pIC50 is 5.23 in assay [1] and 5.73 in assay [2].
In the case of `COc1cc2nc(C)nc(NC(C)c3ccc(-c4ccccc4CN(C)CC(F)F)s3)c2cc1OC` (stereo not drawn) [Example 291, N-{1-[5-(2-{[(2,2-difluoroethyl)(methyl)amino]methyl}phenyl)thiophen-2-yl]ethyl}-6,7-dimethoxy-2-methylquinazolin-4-amine], the results for the negative-log IC50 (pIC50) in assay [1] and in assay [2] were 5.95 and 5.88, respectively.
With `COc1cc2nc(C)nc(NC(C)c3ccc(-c4ccccc4CN(C)C)s3)c2cc1OC` (stereo not drawn) [Example 262, N-[1-(5-{2-[(dimethylamino)methyl]phenyl}thiophen-2-yl)ethyl]-6,7-dimethoxy-2-methylquinazolin-4-amine], the negative-log IC50 (pIC50) in assay [1] was 7.39; in assay [2] it was 7.36.
Turning to `COc1cc2nc(C)nc(NC(C)c3ccc(-c4ccc(Cl)cc4CN(C)C)s3)c2cc1OC` (stereo not drawn) [Example 323, N-[1-(5-{4-chloro-2-[(dimethylamino)methyl]phenyl}thiophen-2-yl)ethyl]-6,7-dimethoxy-2-methylquinazolin-4-amine], the pIC50 is 7.40 in assay [1] and 7.14 in assay [2].
Turning to `COc1cc2nc(C)nc(NC(C)c3ccc(-c4ccccc4CN(C)CC(F)(F)F)s3)c2cc1OC` (stereo not drawn) [Example 321, 6,7-di methoxy-2-methyl-N-{1-[5-(2-{[methyl(2,2,2-trifluoroethyl)amino]methyl}phenyl)thiophen-2-yl]ethyl}quinazolin-4-amine], the pIC50 is 4.83 in assay [1] and 5.20 in assay [2].
For the compound `COc1cc2nc(C)nc(NC(C)c3ccc(-c4ccccc4CNc4cc[nH]n4)s3)c2cc1OC` (stereo not drawn) [Example 302, 6,7-dimethoxy-2-methyl-N-[1-(5-{2-[(1H-pyrazol-3-ylamino)methyl]phenyl}thiophen-2-yl)ethyl]quinazolin-4-amine], the pIC50 in assay [1] is 6.10; in assay [2], 5.90.

The values above are taken from patent US20240083857A1, “2-Methyl-Quinazolines” (Bayer Pharma Aktiengesellschaft, priority 2017, published 2024).
